This passage reports relative viability results from the supplement of paper PMC10307832.

Holding throughout (experiment): relative viability (nuclei count vs DMSO), 5 days (fraction); higher = more cells survive
Compound in assay [1]: C1COCCN1C2=NC(=NC3=C2OC4=C3C=CC=N4)C5=CC(=CC=C5)NC(=O)C6=CN=C(C=C6)N + NC(=O)Nc1cc(-c2cccc(F)c2)sc1C(=O)N[C@H]1CCCNC1 [AZD7762] (partner 0.2 µM)
The procedure, abridged: (§1)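 Relative viability divides the nuclei count in treated wells by that in vehicle wells. Lung cancer cell lines were seeded in 1536-well plates, dosed by pin tool the next day, and fixed and stained after 5 days in one step with final 0.05% Triton X-100, 1% formaldehyde and 1 ug/ml Hoechst. Dosing was a single drug or a fixed anchor-drug dose plus five library-drug doses (not always all listed) in √10 steps, and values are medians of duplicate plates imaged at 4×.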

Compound in assay [2]: C1COCCN1C2=NC(=NC3=C2OC4=C3C=CC=N4)C5=CC(=CC=C5)NC(=O)C6=CN=C(C=C6)N + O=C(CCCCCCC(=O)Nc1ccccc1)NO [Vorinostat] (partner 1 µM)
An outline of the steps: as §1

Compound in the assay “SGI-1776 + Alpelisib”: CN1CCC(CNc2ccc3ncc(-c4cccc(OC(F)(F)F)c4)n3n2)CC1 [SGI-1776] + Cc1nc(NC(=O)N2CCC[C@H]2C(N)=O)sc1-c1ccnc(C(C)(C)C(F)(F)F)c1 [Alpelisib] (partner 2 µM)
An outline of the steps:
as §1

Compound in the assay “SGI-1776 + Bortezomib”: CN1CCC(CNc2ccc3ncc(-c4cccc(OC(F)(F)F)c4)n3n2)CC1 [SGI-1776] + CC(C)C[C@H](NC(=O)[C@H](Cc1ccccc1)NC(=O)c1cnccn1)B(O)O [Bortezomib] (partner 0.002 µM)
An outline of the steps: as §1

Consider NCI-H358, for which the relative viability came out at 0.442 in assay [1] (first compound 0.02 µM); 0.475 in assay [1] (first compound 0.06325 µM); 0.443 in assay [1] (first compound 0.2 µM); 0.465 in assay [1] (first compound 0.6325 µM); 0.409 in assay [1] (first compound 2 µM); 0.727 in assay [2] (first compound 0.02 µM). The relative viability in assay [2] (first compound 0.06325 µM) was determined as 0.723; in assay [2] (first compound 0.2 µM) it was 0.688; in assay [2] (first compound 0.6325 µM) it was 0.644; in assay [2] (first compound 2 µM), 0.332; with SGI-1776 + Alpelisib (first compound 0.08 µM) it was 0.786; with SGI-1776 + Alpelisib (first compound 0.8 µM), 0.837. The relative viability turned out to be 0.751 with SGI-1776 + Alpelisib (first compound 2.53 µM) and 0.405 with SGI-1776 + Alpelisib (first compound 8 µM).
With NCI-H520, the relative viability in assay [2] (first compound 0.02 µM) is 0.74; in assay [2] (first compound 0.06325 µM), 0.747; in assay [2] (first compound 0.2 µM) it was 0.77; in assay [2] (first compound 0.6325 µM), 0.699; in assay [2] (first compound 2 µM) it was 0.451; in the assay with SGI-1776 + Bortezomib (first compound 0.08 µM) it was 0.859. Also, the relative viability with SGI-1776 + Bortezomib (first compound 0.8 µM) was 0.776; in the assay with SGI-1776 + Bortezomib (first compound 2.53 µM) it was 0.716; with SGI-1776 + Bortezomib (first compound 8 µM), 0.22; with SGI-1776 + Alpelisib (first compound 0.08 µM), 0.928; in the assay with SGI-1776 + Alpelisib (first compound 0.8 µM) it was 0.94; with SGI-1776 + Alpelisib (first compound 2.53 µM), 0.914. The relative viability with SGI-1776 + Alpelisib (first compound 8 µM) was found to be 0.759.
Take NCI-H522: the relative viability in assay [1] (first compound 0.02 µM) amounted to 0.708; in assay [1] (first compound 0.06325 µM), 0.867; in assay [1] (first compound 0.2 µM), 0.773; in assay [1] (first compound 0.6325 µM) it was 0.834; in assay [1] (first compound 2 µM), 0.684; in assay [2] (first compound 0.02 µM), 0.831. Moreover, the relative viability turned out to be 0.844 in assay [2] (first compound 0.06325 µM), 0.925 in assay [2] (first compound 0.2 µM), 0.865 in assay [2] (first compound 0.6325 µM) and 0.798 in assay [2] (first compound 2 µM).
Consider NCI-H661, for which the relative viability amounted to 0.766 in assay [2] (first compound 0.02 µM); 0.803 in assay [2] (first compound 0.06325 µM); 0.769 in assay [2] (first compound 0.2 µM); 0.806 in assay [2] (first compound 0.6325 µM); 0.529 in assay [2] (first compound 2 µM); 0.963 in the assay with SGI-1776 + Bortezomib (first compound 0.08 µM). The relative viability with SGI-1776 + Bortezomib (first compound 0.8 µM) turned out to be 0.858; with SGI-1776 + Bortezomib (first compound 2.53 µM) it was 0.833; with SGI-1776 + Bortezomib (first compound 8 µM), 0.649; in the assay with SGI-1776 + Alpelisib (first compound 0.08 µM), 0.81; with SGI-1776 + Alpelisib (first compound 0.8 µM) it was 1.06; with SGI-1776 + Alpelisib (first compound 2.53 µM), 0.592. For the same cell line, the relative viability in the assay with SGI-1776 + Alpelisib (first compound 8 µM) was found to be 0.479.
Turning to NCI-H1299, the relative viability worked out at 1.02 with SGI-1776 + Bortezomib (first compound 0.08 µM); 1.04 with SGI-1776 + Bortezomib (first compound 0.8 µM); 1.02 with SGI-1776 + Bortezomib (first compound 2.53 µM); 1.04 with SGI-1776 + Bortezomib (first compound 8 µM); 1.11 with SGI-1776 + Alpelisib (first compound 0.08 µM); 1.01 with SGI-1776 + Alpelisib (first compound 0.8 µM). For the same cell line, the relative viability amounted to 1.07 with SGI-1776 + Alpelisib (first compound 2.53 µM) and 1.08 in the assay with SGI-1776 + Alpelisib (first compound 8 µM).
On to NCI-H1395, for which the relative viability in assay [1] (first compound 0.02 µM) is 0.387; in assay [1] (first compound 0.06325 µM), 0.348; in assay [1] (first compound 0.2 µM), 0.374; in assay [1] (first compound 0.6325 µM), 0.371; in assay [1] (first compound 2 µM), 0.372; in assay [2] (first compound 0.02 µM) it was 0.66. The relative viability worked out at 0.727 in assay [2] (first compound 0.06325 µM); 0.542 in assay [2] (first compound 0.2 µM); 0.637 in assay [2] (first compound 0.6325 µM); 0.595 in assay [2] (first compound 2 µM); 1.09 with SGI-1776 + Alpelisib (first compound 0.08 µM); 1.02 with SGI-1776 + Alpelisib (first compound 0.8 µM). Further, the relative viability was found to be 0.996 in the assay with SGI-1776 + Alpelisib (first compound 2.53 µM) and 0.631 with SGI-1776 + Alpelisib (first compound 8 µM).
NCI-H1563: the relative viability with SGI-1776 + Bortezomib (first compound 0.08 µM) is 0.934; with SGI-1776 + Bortezomib (first compound 0.8 µM), 0.849; in the assay with SGI-1776 + Bortezomib (first compound 2.53 µM) it was 0.847; with SGI-1776 + Bortezomib (first compound 8 µM) it was 0.692; with SGI-1776 + Alpelisib (first compound 0.08 µM), 0.928; in the assay with SGI-1776 + Alpelisib (first compound 0.8 µM) it was 1. Further, the relative viability was determined as 0.874 with SGI-1776 + Alpelisib (first compound 2.53 µM) and 0.695 with SGI-1776 + Alpelisib (first compound 8 µM).
Turning to NCI-H1648, the relative viability in assay [1] (first compound 0.02 µM) was 0.619; in assay [1] (first compound 0.06325 µM), 0.747; in assay [1] (first compound 0.2 µM), 0.641; in assay [1] (first compound 0.6325 µM), 0.698; in assay [1] (first compound 2 µM), 0.539; in assay [2] (first compound 0.02 µM) it was 0.313. In addition, the relative viability in assay [2] (first compound 0.06325 µM) is 0.306; in assay [2] (first compound 0.2 µM), 0.42; in assay [2] (first compound 0.6325 µM), 0.281; in assay [2] (first compound 2 µM), 0.294.
For NCI-H1650, the relative viability is 0.512 in assay [2] (first compound 0.02 µM); 0.611 in assay [2] (first compound 0.06325 µM); 0.406 in assay [2] (first compound 0.2 µM); 0.642 in assay [2] (first compound 0.6325 µM); 0.354 in assay [2] (first compound 2 µM); 0.217 with SGI-1776 + Bortezomib (first compound 0.08 µM). Besides, the relative viability came to 0.18 with SGI-1776 + Bortezomib (first compound 0.8 µM), 0.207 with SGI-1776 + Bortezomib (first compound 2.53 µM) and 0.181 in the assay with SGI-1776 + Bortezomib (first compound 8 µM).
Consider NCI-H1703, for which the relative viability stood at 0.143 in assay [1] (first compound 0.02 µM); 0.146 in assay [1] (first compound 0.06325 µM); 0.127 in assay [1] (first compound 0.2 µM); 0.108 in assay [1] (first compound 0.6325 µM); 0.124 in assay [1] (first compound 2 µM); 0.328 with SGI-1776 + Bortezomib (first compound 0.08 µM). Also, the relative viability turned out to be 0.407 with SGI-1776 + Bortezomib (first compound 0.8 µM); 0.272 in the assay with SGI-1776 + Bortezomib (first compound 2.53 µM); 0.131 with SGI-1776 + Bortezomib (first compound 8 µM); 0.367 with SGI-1776 + Alpelisib (first compound 0.08 µM); 0.312 with SGI-1776 + Alpelisib (first compound 0.8 µM); 0.299 with SGI-1776 + Alpelisib (first compound 2.53 µM). In addition, the relative viability in the assay with SGI-1776 + Alpelisib (first compound 8 µM) was determined as 0.165.
For NCI-H1792, the relative viability is 0.593 in assay [1] (first compound 0.02 µM); 0.707 in assay [1] (first compound 0.06325 µM); 0.509 in assay [1] (first compound 0.2 µM); 0.544 in assay [1] (first compound 0.6325 µM); 0.386 in assay [1] (first compound 2 µM); 0.94 with SGI-1776 + Bortezomib (first compound 0.08 µM). Besides, the relative viability with SGI-1776 + Bortezomib (first compound 0.8 µM) is 0.941; in the assay with SGI-1776 + Bortezomib (first compound 2.53 µM) it was 0.977; in the assay with SGI-1776 + Bortezomib (first compound 8 µM), 1.01; in the assay with SGI-1776 + Alpelisib (first compound 0.08 µM) it was 0.765; in the assay with SGI-1776 + Alpelisib (first compound 0.8 µM) it was 0.663; with SGI-1776 + Alpelisib (first compound 2.53 µM), 0.696. Also, the relative viability with SGI-1776 + Alpelisib (first compound 8 µM) stood at 0.552.
